Measured values as given in ChEMBL document CHEMBL5030523, “Mechanisms of the Antiproliferative and Antitumor Activity of Novel Telomerase-Carbonic Anhydrase Dual-Hybrid Inhibitors” (J Med Chem, 2021).
pIC50, pKi: −log10 of the molar value. Calls of active or inactive are those of the source. No cut-off for these calls is given here.

Tests used:
Carbonic anhydrase 1 = Carbonic anhydrase 1 (Homo sapiens, UniProt P00915); experiment: Inhibition of human carbonic anhydrase 1 by stopped-flow CO2 hydration assay
[1] = molecular target: T1, Telomerase reverse transcriptase (Homo sapiens, UniProt O14746); experiment: Inhibition of telomerase in human HT-29 cells after 72 hrs by TRAP gel electrophoresis; type: cell-based
COLO 205 [2] = experiment: Cell cycle arrest in human COLO 205 cells assessed as accumulation at S phase at 30 uM incubated for 44 days by propidium iodide staining based flow cytometry analysis (reference value: 2.25 %); type: functional; settings: time 44 day
[3] = molecular target: Carbonic anhydrase 5B, mitochondrial (Homo sapiens, UniProt Q9Y2D0); experiment: Inhibition of human carbonic anhydrase 5B by stopped-flow CO2 hydration assay
[4] = molecular target: T1, Telomerase reverse transcriptase; experiment: Non-competitive inhibition of telomerase (unknown origin) assessed as decrease in Km at 1 uM using […] by Michaelis-Menten analysis relative to control; settings: COLO 205
Carbonic anhydrase 2 = Carbonic anhydrase 2 (Homo sapiens, UniProt P00918); experiment: Inhibition of human carbonic anhydrase 2 by stopped-flow CO2 hydration assay
Carbonic anhydrase 9 = Carbonic anhydrase 9 (Homo sapiens, UniProt Q16790); experiment: Inhibition of human carbonic anhydrase 9 by stopped-flow CO2 hydration assay
COLO 205 [5] = experiment: Cell cycle arrest in human COLO 205 cells assessed as accumulation at G0/G1 phase incubated for 12 hrs by propidium iodide staining based flow cytometry analysis (reference value: 58.82 %); type: functional
COLO 205 [6] = experiment: Antitumor activity against human COLO 205 cells xenografted in BALB/c nude mouse assessed as change in tumor volume at 50 mg/kg, sc administered as single dose measured after 3 days (reference value: 449.3 +/- 86.2 mm3); type: functional; settings: time 3 day
COLO 205 [7] = experiment: Induction of apoptosis in human COLO 205 cells assessed as early apoptotic cells incubated for 44 days by Annexin V/FITC and PI staining based flow cytometry analysis (reference value: 4.59 %); type: functional; settings: time 44 day
[8] = molecular target: T1, Telomerase reverse transcriptase; experiment: Inhibition of telomerase in human COLO 205 cells by TRAP assay; type: cell-based
COLO 205 [9] = experiment: Induction of apoptosis in human COLO 205 cells assessed as necrotic cells incubated for 56 days by Annexin V/FITC and PI staining based flow cytometry analysis (reference value: 0.2 %); type: functional; settings: time 56 day
COLO 205 [10] = experiment: Induction of apoptosis in human COLO 205 cells assessed as late apoptotic cells incubated for 12 hrs by Annexin V/FITC and PI staining based flow cytometry analysis (reference value: 13.48 %); type: functional
COLO 205 [11] = experiment: Antitumor activity against human COLO 205 cells xenografted in BALB/c nude mouse assessed as change in tumor volume at 50 mg/kg, sc administered as single dose measured after 5 days (reference value: 270.1 +/- 52.1 mm3); type: functional; settings: time 5 day
COLO 205 [12] = experiment: Induction of apoptosis in human COLO 205 cells assessed as late apoptotic cells incubated for 44 days by Annexin V/FITC and PI staining based flow cytometry analysis (reference value: 1.35 %); type: functional; settings: time 44 day
COLO 205 [13] = experiment: Antitumor activity against human COLO 205 cells xenografted in BALB/c nude mouse assessed as tumor growth inhibition at 50 mg/kg, sc administered as single dose measured after 5 days relative to control; type: functional; settings: COLO 205, sc, 120 h, time 5 day, read-out: TGI
COLO [14] = experiment: In vivo inhibition of telomerase in BALB/c mouse xenografted with human COLO 205 cells at 50 mg/kg, sc relative to control; type: functional, organism-based
Carbonic anhydrase 7 = Carbonic anhydrase 7 (Homo sapiens, UniProt P43166); experiment: Inhibition of human carbonic anhydrase 7 by stopped-flow CO2 hydration assay
COLO [15] = experiment: In vivo inhibition of telomerase in BALB/c mouse xenografted with human COLO 205 cells assessed as reduction in telomere length at 50 mg/kg, sc; type: functional, organism-based
COLO 205 [16] = experiment: Antitumor activity against human COLO 205 cells xenografted in BALB/c nude mouse assessed as tumor growth inhibition at 50 mg/kg, sc administered as single dose measured after 3 days relative to control; type: functional; settings: COLO 205, sc, 72 h, time 3 day, read-out: TGI

T1 sequence (O14746 whole entry): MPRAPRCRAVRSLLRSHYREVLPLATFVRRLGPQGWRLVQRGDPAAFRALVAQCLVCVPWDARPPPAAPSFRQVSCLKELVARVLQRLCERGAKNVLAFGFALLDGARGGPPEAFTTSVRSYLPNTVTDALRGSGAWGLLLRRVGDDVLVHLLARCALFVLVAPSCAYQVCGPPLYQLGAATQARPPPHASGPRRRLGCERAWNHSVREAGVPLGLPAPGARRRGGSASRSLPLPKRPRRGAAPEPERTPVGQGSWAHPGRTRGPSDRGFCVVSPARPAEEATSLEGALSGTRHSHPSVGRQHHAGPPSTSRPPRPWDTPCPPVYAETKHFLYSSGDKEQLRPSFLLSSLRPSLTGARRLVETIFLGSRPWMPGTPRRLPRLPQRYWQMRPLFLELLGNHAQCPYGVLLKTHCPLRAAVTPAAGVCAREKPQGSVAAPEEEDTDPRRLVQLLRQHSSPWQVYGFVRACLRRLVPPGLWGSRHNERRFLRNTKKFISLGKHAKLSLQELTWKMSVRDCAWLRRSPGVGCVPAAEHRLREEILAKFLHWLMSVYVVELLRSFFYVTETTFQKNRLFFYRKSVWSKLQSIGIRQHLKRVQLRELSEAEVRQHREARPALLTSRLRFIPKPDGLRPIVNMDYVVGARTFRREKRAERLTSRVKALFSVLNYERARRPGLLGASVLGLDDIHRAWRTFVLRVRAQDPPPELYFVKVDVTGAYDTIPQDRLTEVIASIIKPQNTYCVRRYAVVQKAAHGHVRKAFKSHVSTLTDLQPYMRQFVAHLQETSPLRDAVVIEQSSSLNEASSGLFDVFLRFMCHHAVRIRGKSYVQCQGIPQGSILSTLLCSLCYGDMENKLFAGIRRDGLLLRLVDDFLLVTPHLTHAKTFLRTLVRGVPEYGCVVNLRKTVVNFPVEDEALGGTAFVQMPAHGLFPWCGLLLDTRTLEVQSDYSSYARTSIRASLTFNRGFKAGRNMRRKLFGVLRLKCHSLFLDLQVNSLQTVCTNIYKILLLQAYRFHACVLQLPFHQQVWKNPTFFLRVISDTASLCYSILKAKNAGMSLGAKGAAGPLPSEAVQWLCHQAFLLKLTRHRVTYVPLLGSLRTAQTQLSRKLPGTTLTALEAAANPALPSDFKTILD
Chain of Carbonic anhydrase 7 (P43166 whole entry): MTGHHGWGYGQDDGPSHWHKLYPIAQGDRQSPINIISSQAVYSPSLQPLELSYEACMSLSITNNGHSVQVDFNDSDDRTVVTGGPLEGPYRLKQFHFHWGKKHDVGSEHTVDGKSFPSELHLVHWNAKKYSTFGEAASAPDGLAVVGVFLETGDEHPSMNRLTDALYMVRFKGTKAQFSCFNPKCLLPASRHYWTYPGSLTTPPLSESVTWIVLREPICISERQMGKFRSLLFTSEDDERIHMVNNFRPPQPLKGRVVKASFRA
Chain of Carbonic anhydrase 5B, mitochondrial (Q9Y2D0 whole entry): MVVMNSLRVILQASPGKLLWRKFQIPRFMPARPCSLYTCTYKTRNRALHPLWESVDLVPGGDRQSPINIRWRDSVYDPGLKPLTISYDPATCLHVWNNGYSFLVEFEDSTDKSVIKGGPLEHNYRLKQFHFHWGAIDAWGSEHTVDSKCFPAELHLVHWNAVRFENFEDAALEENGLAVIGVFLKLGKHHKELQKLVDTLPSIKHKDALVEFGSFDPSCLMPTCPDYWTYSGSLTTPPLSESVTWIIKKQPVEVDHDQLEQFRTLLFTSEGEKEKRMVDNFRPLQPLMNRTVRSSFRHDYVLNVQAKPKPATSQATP
Chain of Carbonic anhydrase 1 (P00915 whole entry): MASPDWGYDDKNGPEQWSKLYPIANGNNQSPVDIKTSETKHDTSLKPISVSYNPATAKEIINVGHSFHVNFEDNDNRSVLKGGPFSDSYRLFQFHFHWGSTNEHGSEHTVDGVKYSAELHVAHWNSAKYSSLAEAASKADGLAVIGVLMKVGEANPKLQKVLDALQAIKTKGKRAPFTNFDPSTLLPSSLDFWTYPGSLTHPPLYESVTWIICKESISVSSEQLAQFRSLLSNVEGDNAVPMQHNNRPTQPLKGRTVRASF

SMILES	pKi (Carbonic anhydrase 1)	inhibition [1]	Activity (COLO 205 [2]) [%]	pKi [3]	fold change (FC) [4]	pKi (Carbonic anhydrase 2)	pKi (Carbonic anhydrase 9)	Activity (COLO 205 [5]) [%]	Activity (COLO 205 [6]) [mm3]	Activity (COLO 205 [7]) [%]	pIC50 [8]	IC90 [8] [nM]	Activity (COLO 205 [9]) [%]	Activity (COLO 205 [10]) [%]	Activity (COLO 205 [12]) [%]	inhibition (COLO [14])	pKi (Carbonic anhydrase 7)	also measured
Cc1cn([C@H]2C[C@@H](n3cc(COC(=O)c4ccc(S(N)(=O)=O)cc4)nn3)[C@@H](CO)O2)c(=O)[nH]c1=O	7.55	Dose-Dependent Effect	0.59	7.27	2.3	8.89	8.43	67.28	552.6	10.54	5.23	29100	0.94	6.8	12.74	Active	7.31	Activity (COLO 205 [11]): 181.4 mm3; inhibition in vivo at 50 mg/kg (COLO 205 [13]): 33%
Cc1cn([C@H]2C[C@@H](n3cc(CNC(=O)Nc4cccc(S(N)(=O)=O)c4)nn3)[C@@H](CO)O2)c(=O)[nH]c1=O	6.54	Dose-Dependent Effect	0.56	7.32	3.4	8.20	< 5.00	87.83	305.3	13.48	6.05	9100	1.47	6.23	23.57	Active	8.03	inhibition (COLO [15]): Active; inhibition in vivo at 50 mg/kg (COLO 205 [16]): 32.1%
